Results as given in patent publication US10294234B2, “HIV inhibitor compounds” (priority 2017, dated 2019).

Assays:
[1] = test system: HIV-1 (IIIB) in MT-4 cells; assay: Protein adjusted EC95 (high resolution antiviral assay with equilibrium dialysis plasma protein binding); format: cell-based; settings: EC95 adjusted for plasma protein binding (10% plasma vs cell culture media)
Method: MT-4 HIV High Resolution Antiviral Assay
Assay protocol is identical to that described for the MT-4 antiviral assay with the following changes: Each drug is run in 2 series of quadruplicates with different starting concentrations for each series and 19 1.5 fold dilutions performed across the plate. […] Data is analyzed and Hill coefficients determined in Graph Pad Prism (San Diego, Calif.). EC95s were determined by the formula EC95=(19)^I/hill coefficient×EC50. HD values were determined for certain compounds and reported in Table 5 below as an illustrative example.
Equilibrium Dialysis Assay
Pooled plasma (from at least 3 males and 3 females) was from Bioreclamation IVT. Sodium EDTA was used as the anticoagulant. 10% plasma was diluted in 0.133M phosphate buffer consisted of 1.5% (w/v) Sodium EDTA.
RPMI cell culture media consisted 10% FBS was provided by biology department, Gilead Sciences, Inc.
Plasma Protein Binding Assay:
Studies were conducted in duplicate or triplicate using a Dianorm Equilibrium Dialyser (Harvard Apparatus, Holliston Mass.) with each cell consisting of a semipermeable membrane (2.4 cm working diameter) separating two 1 mL PTFE half-cells (Weder HG, Schildknecht J, Kesselring P. A new equilibrium dialyzing system. American Laboratory. 1971; 10: 15-21). Prior to the study, the dialysis membrane was soaked for approximately one hour in 0.133 M phosphate buffer, pH 7.4. 10% plasma and cell culture media spiked with 1 μM compound (1 mL) were placed into opposite sides of the assembled dialysis cells and the dialysis cells were then rotated slowly in a 37° C. water bath. After the equilibration period, matrix-containing samples from both sides were drained into pre-weighed polypropylene tubes. Post-dialysis 10% plasma samples were transferred into centrifuge tubes containing 1 mL of blank cell culture media. Post-dialysis cell culture media samples were transferred into centrifuge tubes containing 1 mL of blank 10% plasma. All samples weights were measured and recorded for calculations of volume shift and recovery. […]

[2] = male beagle dogs, IV infusion over 30 minutes, 0.5 or 1.0 mg/kg

COC(=O)N[C@H](C(=O)N[C@@H](Cc1ccc(C#Cc2ccc(N3CC4CCC(C3)N4C3COC3)nc2)cc1)[C@@H](O)CN(Cc1c(F)cc(-c2ccn(C(F)F)n2)cc1F)NC(=O)[C@@H](NC(=O)OC)C(C)(C)C(F)(F)F)C(C)(C)C(F)(F)F [Example 58, Methyl ((5S,8S,9S,14S)-11-(4-(1-(difluoromethyl)-1H-pyrazol-3-yl)-2,6-difluorobenzyl)-16,16,16-trifluoro-9-hydroxy-15,15-dimethyl-8-(4-((6-(8-(oxetan-3-yl)-3,8-diazabicyclo[3.2.1]octan-3-yl)pyridin-3-yl)ethynyl)benzyl)-3,6,13-trioxo-5-(1,1,1-trifluoro-2-methylpropan-2-yl)-2-oxa-4,7,11,12-tetraazahexadecan-14-yl)carbamate]
DOG IV CL (in vivo; [2]): 7.83 mL/min/kg
DOG IV T1/2 (in vivo; [2]): 13.8 h
DOG PO F (in vivo; male beagle dogs, oral gavage, PO dose 2 mg/kg): 18%
Vd (in vivo; male, beagle, dog, plasma, iv): 6.34 L/kg
Protein Adjusted EC95 [1]: 353 nM
